Measured values published in patent US7998992B2, “Oxazolidinone derivative having inhibitory activity on 11β-hydroxysteroid dehydrogenase type 1” (Institute of Medicinal Molecular Design, Inc., priority 2007, dated 2011).

Legend:
[1] = molecular target: Human 11β-HSD1 (Homo sapiens, UniProt P28845); assay: Evaluation of compound against human 11β-HSD1 (HTRF cortisol assay); assay type: biochemical; details: substrate cortisone 5 μM, 37° C. for 2 hours, HTRF method
Protocol: (§1) After preincubating an inhibitor in a reaction solution consisting of 50 mM sodium phosphate buffer (pH 7.6), bovine serum albumin (1 mg/mL), NADPH (0.42 mg/mL), glucose-6-phosphate (1.26 mg/mL), glucose-6-phosphate dehydrogenase and an enzyme at room temperature for 30 minutes, cortisone (5 μM) which is a substrate was added (total amount 10 μL). After reacting at 37° C. for 2 hours, an XL-665-labeled cortisol solution (5 μL), and a Cryptate-labeled anti-cortisol antibody solution (5 μL) were added, a reaction was performed at room temperature for 2 hours, and fluorescence intensity (HTRF method) was measured. A cortisol concentration was measured from a standard curve prepared using a known concentration of cortisol for each assay.
(§2) Taking a concentration of cortisol generated in the absence of the inhibitor as a control value, 50% inhibition concentration (IC50 value) of the inhibitor against 11β-HSD1 was calculated from an inhibition curve plotting inhibition rate against the control value at each concentration of an inhibitor.

[2] = molecular target: Mouse 11β-HSD1 (Mus musculus, UniProt P50172); assay: Evaluation of compound against mouse 11β-HSD1 (HTRF corticosterone assay); assay type: biochemical; details: substrate 11-dehydrocorticosterone 2 μM, 37° C. for 2 hours, HTRF method
Sequence of Mouse 11β-HSD1 (P50172 whole entry): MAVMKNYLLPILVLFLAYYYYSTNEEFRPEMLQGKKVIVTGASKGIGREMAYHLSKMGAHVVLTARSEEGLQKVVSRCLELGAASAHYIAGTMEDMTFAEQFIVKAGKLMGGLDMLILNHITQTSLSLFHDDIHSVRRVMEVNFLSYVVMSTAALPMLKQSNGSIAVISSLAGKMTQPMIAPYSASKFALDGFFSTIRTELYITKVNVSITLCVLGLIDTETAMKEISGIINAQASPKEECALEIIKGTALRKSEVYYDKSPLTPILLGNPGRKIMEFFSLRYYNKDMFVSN
Protocol: as §1, with “dehydrogenase,” for “dehydrogenase”, “11-dehydrocorticosterone (2” for “cortisone (5”, “measured.” for “measured. A cortisol concentration was measured from a standard curve prepared using a known concentration of cortisol for each assay.”
A corticosterone concentration was measured from a standard curve prepared using a known concentration of corticosterone for each assay.
as §2, with “of corticosterone” for “of cortisol”, “of the” for “of an”

Sequence of Human 11β-HSD1 (P28845 whole entry): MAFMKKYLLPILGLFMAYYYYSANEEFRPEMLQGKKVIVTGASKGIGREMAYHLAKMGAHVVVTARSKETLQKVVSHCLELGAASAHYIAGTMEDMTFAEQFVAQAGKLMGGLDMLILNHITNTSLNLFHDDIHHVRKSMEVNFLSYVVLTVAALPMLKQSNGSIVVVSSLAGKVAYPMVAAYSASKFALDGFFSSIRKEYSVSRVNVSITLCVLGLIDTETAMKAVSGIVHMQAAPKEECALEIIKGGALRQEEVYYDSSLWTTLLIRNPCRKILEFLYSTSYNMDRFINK

- IC50 [1]: 0.43 µM
- IC50 [2]: 8.4 µM
SMILES: CCN(C[C@@H]1CN(C2CCCCCCC2)C(=O)O1)S(=O)(=O)c1ccccc1 [Compound I-21]
